The target in assay [1] is T1, mitochondrial complex I (Bos taurus, UniProt P03887+P17694+P42026). The experiment in a line: NADH:decylubiquinone/DCPIP complex I kinetics in freeze-thawed mitochondria. Type of assay: biochemical.
Assay [2] has as its target T1, mitochondrial complex I. The assay can be described thus: Michaelis-Menten kinetics with DCPIP reduction, NADH as electron donor. Type of assay: cell-based.

T1 sequence (P42026 38-216): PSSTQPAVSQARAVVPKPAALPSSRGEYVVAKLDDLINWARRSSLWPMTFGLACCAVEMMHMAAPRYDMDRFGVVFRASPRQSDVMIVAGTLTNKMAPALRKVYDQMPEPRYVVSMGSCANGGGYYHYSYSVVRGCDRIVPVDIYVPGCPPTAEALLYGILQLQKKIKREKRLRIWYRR
T1 sequence (P03887 whole entry): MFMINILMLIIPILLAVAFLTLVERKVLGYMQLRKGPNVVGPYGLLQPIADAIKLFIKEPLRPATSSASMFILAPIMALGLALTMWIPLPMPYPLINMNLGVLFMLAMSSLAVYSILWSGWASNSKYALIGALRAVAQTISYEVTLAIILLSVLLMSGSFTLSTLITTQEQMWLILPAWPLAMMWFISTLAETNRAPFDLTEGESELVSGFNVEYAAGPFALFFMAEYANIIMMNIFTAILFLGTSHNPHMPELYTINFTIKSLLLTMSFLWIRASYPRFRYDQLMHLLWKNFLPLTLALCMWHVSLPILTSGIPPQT
T1 sequence (P17694 34-463): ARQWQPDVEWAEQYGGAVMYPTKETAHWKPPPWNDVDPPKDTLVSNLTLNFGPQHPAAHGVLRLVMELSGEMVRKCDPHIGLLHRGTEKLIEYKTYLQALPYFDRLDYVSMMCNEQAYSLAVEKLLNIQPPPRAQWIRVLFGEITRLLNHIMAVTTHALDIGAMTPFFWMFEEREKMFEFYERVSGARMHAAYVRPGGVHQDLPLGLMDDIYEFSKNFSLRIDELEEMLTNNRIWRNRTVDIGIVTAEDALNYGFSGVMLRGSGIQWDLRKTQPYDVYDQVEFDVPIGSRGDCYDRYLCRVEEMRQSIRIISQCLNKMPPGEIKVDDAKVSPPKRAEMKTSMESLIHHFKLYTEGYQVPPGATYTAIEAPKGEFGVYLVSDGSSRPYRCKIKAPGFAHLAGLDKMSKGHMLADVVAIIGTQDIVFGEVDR

A word on the Ki: it is a measure of affinity in units of concentration, obtained from inhibition or displacement. `CCCCCCCc1[nH]c2ccccc2c(=O)c1O` [PQS, 2‐heptyl‐3‐hydroxy‐4(1H)‐quinolone] had a Ki in assay [1] of 560 nM. Regarding `CCCCCCCCCCC1=C(C)C(=O)C(OC)=C(OC)C1=O` [decylubiquinone], the “Michaelis-Menten kinetics with DCPIP reduction, NADH as electron donor” value in assay [2] is on record as “Kinetics with the substrate analog decylubiquinone at different PQS concentrations were measured”.

(Values after PMC7059627 (FASEB bioAdvances, 2020).)
